Tests used:
[1] = organism: Rattus norvegicus; test: Compound was tested for the inhibition of [3H]D-aspartate radioligand uptake into Synaptosomes in synaptic plasma membrane prepared from rat forebrain; type: functional
[2] = target: Glutamate NMDA receptor; test: Compound was tested for the inhibition of [3H]L-Glutamate radioligand binding to NMDA receptor in synaptic plasma membrane prepared from rat forebrain; very weak inhibition; type: cell membranes, Brain/Plasma
[3] = target: T1, Glutamate receptor ionotropic, AMPA (Rattus norvegicus, UniProt P19490+P19491+P19492+P19493); test: Compound was tested for the inhibition of [3H]AMPA radioligand binding to Ionotropic glutamate receptor AMPA in synaptic plasma membrane prepared from rat forebrain; very weak inhibition; type: cell membranes, Brain/Plasma
[4] = target: Glutamate receptor ionotropic, kainate; test: Compound was tested for the inhibition of [3H]kainate radioligand binding to Ionotropic glutamate receptor kainate in synaptic plasma membrane prepared from rat forebrain; type: cell membranes, Brain/Plasma
[5] = target: T1, Glutamate receptor ionotropic, AMPA; test: Compound was tested for the inhibition of [3H]AMPA radioligand binding to Ionotropic glutamate receptor AMPA in synaptic plasma membrane prepared from rat forebrain; type: cell membranes, Brain/Plasma
[6] = target: Glutamate NMDA receptor; test: Compound was tested for the inhibition of [3H]L-Glutamate radioligand binding to NMDA receptor in synaptic plasma membrane prepared from rat forebrain; type: cell membranes, Brain/Plasma
[7] = organism: Rattus norvegicus; test: Compound was tested for the inhibition of [3H]D-aspartate radioligand uptake into Synaptosomes in synaptic plasma membrane prepared from rat forebrain; very weak inhibition; type: functional, Brain/Plasma

Structure (SMILES)	Ki [1]	Ki [2]	Ki [3]	Ki [4]	Ki [5]	Ki [6]	Ki [7]
CC(C)[C@H]1CN[C@H](C(=O)O)[C@H]1CC(=O)O [DIHYDROKAINATE]	30 µM	> 300 µM	> 500 µM	16 µM			
O=C(O)C[C@H]1CCN[C@@H]1C(=O)O [TRANS-CPPA]				1.6 µM	106 µM	0.5 µM	> 250 µM

Reference: ChEMBL document CHEMBL1129115, “The role of the C-4 side chain of kainate and dihydrokainate in EAA receptor and transporter selectivity” (Bioorg Med Chem Lett, 1996)
